These results are taken from patent publication US20240300959A1, “BALASUBRAMIDE DERIVATIVE AND USE THEREOF IN PREPARATION OF MEDICINE FOR TREATING ACUTE LUNG INJURY” (Guangdong Pharmaceutical University, priority 2023, published 2024).

Each structure is given as a SMILES string.

Data set [1] concerns mice with acute lung injury caused by intratracheal instillation of lipopolysaccharide. Put plainly: Intratracheal LPS acute lung injury: wet/dry ratio, BALF TNF-α, total protein, myeloid cells. The format is in vivo, ICR mice. The procedure:
Grouping and administration of animals: 50 male ICR mice were randomly divided into 3 groups according to the body weight, including a control group, a model group and a 50 mg/kg (+)3C-20 group. Drug preparation, administration and a modeling method were the same as those in Example 7. After continuous preadministration for 3 days, intratracheal instillation of LPS was performed for modeling 2 h after the last administration. 6 h after the modeling, a part of the mice were directly sacrificed, the whole lungs were taken out and weighed to obtain wet weight, then the whole lungs were dried at 60° C. for 24 h and weighed to obtain dry weight, and the wet-dry weight ratio of each group was calculated by statistics. 6 h after the modeling, the remaining mice were subjected to bronchoalveolar lavage, and then bronchoalveolar lavage fluid (BALF) was collected. A lavage process was as follows: After being sacrificed, the mice were placed faceup to fix the four limbs, the skin of the neck was cut, the trachea was separated and cut at an appropriate position to obtain a small incision, a 16G needle with a flat tip was inserted into the trachea at a depth of 1 cm, the trachea and the needle stem were tied tightly to obtain an indwelling needle, 400 μL of precooled PBS was sucked with a 1 mL syringe and slowly pushed into the trachea, suction was performed for two times, the operations above were repeated, and recovered BALF was combined with a recovery efficiency of 70%-80%. The collected BALF was subjected to centrifugation at 500×g at 4° C. for 5 min, a supernatant was collected, the content level of total protein in the supernatant was determined by a BCA kit, and the expression level of an inflammatory factor TNF-α in the BALF supernatant was detected according to an operation instruction of a commercial ELISA kit.
A bottom precipitate obtained after the centrifugation of the BALF was resuspended with 100 μL of an ACK buffer (Thermo A10492 stomatocytosis agent), evenly blown and subjected to standing for 1 min. Stomatocytosis was stopped with 1 mL of an FACS buffer (PBS containing 1% of FBS), centrifugation was performed at 500×g at 4° C. for 5 min, a supernatant was discarded, 100 μL of an FACS buffer was added, 1 μL of a CD16/CD32 Fc Block antibody (1:100) was added, and incubation was performed in the dark at 4° C. for 30 min. 1 mL of an FACS buffer was added, centrifugation was performed at 500×g at 4° C. for 5 min, a supernatant was discarded, and 100 μL of an FACS buffer was added for resuspension. Various fluorescent dyes (including mCD45-PerCP-Cy5.5, mCD11b-FITC, mF4/80-APC, mLy6C-PE, mLy6G-BV421 and FVS-780) were added at a ratio of 1:300, a single dye tube of each of the fluorescent dyes was prepared according to the above ratio, and incubation was performed in the dark at 4° C. for 30 min. 1 mL of an FACS buffer was added for resuspension, centrifugation was performed at 500×g at 4° C. for 5 min, and a supernatant was discarded. Washing was repeated for one time, centrifugation was performed to remove a supernatant, 500 μL of 1% paraformaldehyde was added for fixing in the dark for 30 min, centrifugation was performed at 500×g at 4° C. for 5 min, and a supernatant was discarded. 200 μL of an FACS buffer was added for resuspension, and a resulting suspension was stored in the dark at 4° C. Before loading on a machine, the stained cell suspension was diluted with an FACS buffer, transferred to a flow tube and detected according to an operation procedure of a CytoFlex flow cytometer. A flow gate strategy was as follows: Gain was first regulated according to each single dye tube, and compensation was properly regulated, where CD45^+, CD11b^+ and F4/80^+ were macrophages, CD45^+, CD11b^+ and Ly6G^+ were neutrophils, and CD45^+, CD11b^+ and Ly6C^+ were monocytes.

The test system of a further data set is RAW264.7 cells. Put plainly: CCK-8 cell viability of RAW264.7 macrophages at different concentrations of (+)3C-20 (LPS experiment). To be noted: RAW264.7 cell viability. The data set is classed as cell-based, mice. How it is done: RAW264.7 cells were inoculated into a 96-well plate at a density of 1×10^5 per well. When the cell density was 70%-80%, the RAW264.7 cells were pretreated with (+)3C-20 ([…]). After 3 h, lipopolysaccharide (LPS, 100 ng/mL) was added into all wells for action for 2 h except for a control group. The expression level of an inflammatory factor TNF-α in a cell supernatant was detected according to an operation instruction of a commercial ELISA kit, and the cell viability at different administration concentrations of (+)3C-20 was determined according to an operation instruction of a CCK-8 kit.

Where [2] appears, read: 50 mg/kg i.p. 3 days, 6 h after intratracheal LPS, model group = 100.

For `O=C(CCc1ccc(C(F)(F)F)cc1)O[C@@H]1C(=O)NCCc2c([nH]c3ccccc23)[C@H]1c1ccc(C(F)(F)F)cc1` [(+)-3C-20], in data set [1] (setting [2]), the “Level of TNF-α in BALF” value is given as 43.31. In data set [1] (setting [2]), the “Level of total protein in BALF” value is 73.44. Moreover, the Wet/Dry ratio in data set [1] (50 mg/kg i.p. 3 days, lung, 6 h after intratracheal LPS) is 4.28. In data set [1] (50 mg/kg i.p., BALF flow cytometry CD45+ CD11b+ F4/80+), the “Macrophage (%)” value came to 0.82%. Also, the “Monocyte (%)” value in data set [1] (50 mg/kg i.p., BALF flow cytometry CD45+ CD11b+ Ly6C+) was 4.13%. Moreover, in data set [1] (50 mg/kg i.p., BALF flow cytometry CD45+ CD11b+ Ly6G+), the “Neutrophil (%)” value came out at 10.47%. In addition, the “Percentage of CCK-8 in a model group (%)” value in the data set on RAW264.7 cells (0.1 μM) was 108.6 ± 1.49%; with RAW264.7 cells (0.5 μM) it was 106.11 ± 2.44%; with RAW264.7 cells (1 μM), 106.01 ± 1.75%; with RAW264.7 cells (2 μM), 106.41 ± 3.04%; with RAW264.7 cells (5 μM), 105.55 ± 1.06%; in the data set with RAW264.7 cells (10 μM), 96.64 ± 1.45%. Besides, the “Percentage of CCK-8 in a model group (%)” value in the data set with RAW264.7 cells (20 μM) was determined as 95.83 ± 2.29%.
